Test results as given in patent publication US10981932B2, “Macrocyclic indole derivatives” (Bayer Aktiengesellschaft, priority 2016, dated 2021).
Values joined by “and” are separate entries in the source; they are usually repeats but may differ in a detail not shown here. Equal values may be shown once. Where a name gives a salt, the structure may show the parent alone.

Tests used:
SUDHL5 [1] = assay: Induction of cytotoxicity (CellTiter-Glo, 5 h), SUDHL5; details: Homo sapiens, SU-DHL-5, 5 h, read-out: Cytotox SUDHL5 [M] (median), SUDHL5 cells, cytotoxicity induction, CellTiter-Glo, 5 h incubation, median
SUDHL5 [2] = assay: Induction of caspase-3/7 activity (Caspase-Glo 3/7), SUDHL5; type: cell-based; details: Homo sapiens, SU-DHL-5, 3 h, caspase-3/7 induction, SUDHL5 cells, 3 h treatment; median
Method in brief: (§1)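 A 3 h, 37 °C compound incubation precedes the Caspase-Glo 3/7 read. After subtracting medium-only signal, EC50s are fitted against the reference compound's maximal caspase induction.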

SUDHL5 [3] = assay: Anti-proliferative effect (CellTiter-Glo, 72 h), SUDHL5; type: cell-based; details: Homo sapiens, SU-DHL-5, 72 h, SUDHL5 cells, antiproliferation, 72 h incubation, median, read-out: Antiproli SUDHL5 [M] (median)
Method in brief: (§2)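 Plate cells alongside a separate day 0 reference plate. Read the reference plate at once with CellTiter-Glo. Incubate treated cells 72 h at 37 °C, then read them the same way by luminescence.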

SUDHL10 [4] = assay: Anti-proliferative effect (CellTiter-Glo, 72 h), SUDHL10; type: cell-based; details: Homo sapiens, SU-DHL10, 72 h, SUDHL10 cells, antiproliferation, 72 h incubation, median, read-out: Antiproli SUDHL10 [M] (median)
Method in brief: as §2

MCL-1 = MCL-1 (Homo sapiens, UniProt Q07820); assay: Protein-protein interaction assay MCL-1/Noxa BH3 peptide (MCL-1 assay), TR-FRET; type: binding; details: MBP-MCL-1 / Noxa BH3-derived peptide, median
Sequence of MCL-1 (Q07820 whole entry): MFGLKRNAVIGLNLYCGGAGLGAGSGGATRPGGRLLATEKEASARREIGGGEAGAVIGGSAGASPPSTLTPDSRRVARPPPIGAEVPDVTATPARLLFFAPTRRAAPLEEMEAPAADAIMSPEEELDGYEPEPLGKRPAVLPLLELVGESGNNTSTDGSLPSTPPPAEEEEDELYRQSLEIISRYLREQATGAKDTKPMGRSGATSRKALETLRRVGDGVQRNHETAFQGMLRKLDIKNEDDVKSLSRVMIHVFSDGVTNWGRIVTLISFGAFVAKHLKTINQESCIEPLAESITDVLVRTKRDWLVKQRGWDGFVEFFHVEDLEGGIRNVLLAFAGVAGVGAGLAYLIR
Method in brief: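 Steady-state competition, MCL-1/Noxa BH3, TR-FRET readout; 1 nM MBP-MCL-1, 11-point dose series 0.1 nM–20 μM; overnight 4 °C equilibration; 4-parameter IC50.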

OPM2 = assay: Anti-proliferative effect (CellTiter-Glo, 72 h), OPM2; type: cell-based; details: Homo sapiens, OPM-2, 72 h, OPM2 cells, median, read-out: IC50 antiproliferation assay OPM2 [M] (median)
Method in brief: as §2

SUDHL10 [5] = assay: Induction of caspase-3/7 activity (Caspase-Glo 3/7), SUDHL10; type: cell-based; details: Homo sapiens, SU-DHL10, 3 h, caspase-3/7 induction, SUDHL10 cells, 3 h treatment; median
Method in brief: as §1

A2780 = assay: Anti-proliferative effect (CellTiter-Glo, 72 h), A2780; type: cell-based; details: Homo sapiens, A2780, 72 h, A2780 cells, median, read-out: IC50 antiproliferation assay A2780 [M] (median)
Method in brief: as §2

SUDHL10 [6] = assay: Induction of cytotoxicity (CellTiter-Glo, 5 h), SUDHL10
[7] = Homo sapiens, SU-DHL10, 5 h, read-out: Cytotox SUDHL10 [M] (median), SUDHL10 cells, cytotoxicity induction, CellTiter-Glo, 5 h incubation, median

| SMILES | IC50 (SUDHL5 [1]) | EC50 (SUDHL5 [2]) | IC50 (SUDHL5 [3]) | IC50 (SUDHL10 [4]) | IC50 (MCL-1) | IC50 (OPM2) | EC50 (SUDHL10 [5]) | IC50 (A2780) | IC50 (SUDHL10 [6]; [7]) | IC50 (SUDHL10 [6]; read-out: Cytotox SUDHL10 [M] (median), SUDHL10 cells, cytotoxicity induction, CellTiter-Glo, 5 h incubation, median) |
| --- | --- | --- | --- | --- | --- | --- | --- | --- | --- | --- |
| COCC(=O)N1CCN(c2ccc(OCc3nn(C)c4c3-c3cccc5c(CCCOc6cccc7ccccc67)c(C(=O)O)n(c35)CCCCOC4)cc2)CC1 (racemic) [Example 1-27, (rac)-3-({4-[4-(methoxyacetyl)piperazin-1-yl]phenoxy}methyl)-1-methyl-7-[3-(naphthalen-1-yloxy)propyl]-1,10,11,12,13,15-hexahydropyrazolo[4′,3′:9,10][1,6]oxazacycloundecino[8,7,6-hi]indole-8-carboxylic Acid] | 3.53e-06 M | 4.42 µM | 2.95e-06 M | 6.3e-06 M | 0.00208 µM | 8.75e-06 M | 7.5 µM | 2.23e-05 M | 8.44e-06 M |  |
| Cn1nc(COc2ccc(N3CCN(CCC(C)(C)O)CC3)cc2)c2c1COCCCCn1c(C(=O)O)c(CCCOc3cccc4ccccc34)c3cccc-2c31 (racemic) [Example 1-121, (rac)-3-({4-[4-(3-hydroxy-3-methylbutyl)piperazin-1-yl]phenoxy}methyl)-1-methyl-7-[3-(naphthalen-1-yloxy)propyl]-1,10,11,12,13,15-hexahydropyrazolo[4′,3′:9,10][1,6]oxazacycloundecino[8,7,6-hi]indole-8-carboxylic Acid Ammonium Salt] | 3.07e-06 M | 2.66 µM | 5.79e-06 M | 5.07e-06 M | 0.00436 µM | 8.33e-06 M | 8.04 µM | 9.61e-06 M | 6.21e-06 M |  |
| COCc1nn(C)c2c1-c1cccc3c(CCCOc4cccc5ccccc45)c(C(=O)O)n(c13)CCCN(C)C2 (single isomer, unassigned; enantiomer 1) [Example 1-103, 11-(methoxymethyl)-7,9-dimethyl-1-[3-(1-naphthyloxy)propyl]-4,5,6,7,8,9-hexahydropyrazolo[3′,4′:7,8][1,5]diazecino[9,10,1-hi]indole-2-carboxylic Acid (Enantiomer 1)] | 3.97e-06 M | 2.83 µM | 3.92e-06 M | 1.02e-05 M | 0.00735 µM | 1.58e-05 M | 7.79 µM | > 3.3e-05 M | 1.27e-05 M |  |
| COC1(c2ccc(OCc3nn(C)c4c3-c3cccc5c(CCCOc6cccc7ccccc67)c(C(=O)O)n(c35)CC=CCOC4)cc2)CCOCC1 (racemic) [Example 1-64, (rac)-(E/Z)-3-{[4-(4-methoxytetrahydro-2H-pyran-4-yl)phenoxy]methyl}-1-methyl-7-[3-(naphthalen-1-yloxy)propyl]-1,10,13,15-tetrahydropyrazolo[4′,3′:9,10][1,6]oxazacycloundecino[8,7,6-hi]indole-8-carboxylic Acid] | 2.65e-05 M | 19.9 µM | 1.2e-05 M | 7.4e-06 M | 0.0988 µM | 2.15e-05 M | 29.4 µM | 1.21e-05 M | > 3.3e-05 M | 3.12e-05 M and 2.47e-05 M |
| Cc1c2c(nn1C)COCCCn1c(C(=O)O)c(CCCOc3cccc4ccccc34)c3cccc-2c31 (racemic) [Example 063, (rac)-10,11-dimethyl-1-[3-(naphthalen-1-yloxy)propyl]-5,6,8,10-tetrahydro-4H-pyrazolo[4′,3′:8,9][1,5]oxazecino[7,6,5-hi]indole-2-carboxylic Acid] | 7.73e-06 M | 7.71 µM | 3.98e-06 M | 5.35e-06 M | 0.0106 µM | 1.36e-05 M | 16.5 µM | 2.02e-05 M | 1.16e-05 M |  |
| CC(C)OCc1nn(C)c2c1-c1cccc3c(CCCOc4cccc5ccccc45)c(C(=O)O)n(c13)CCCCN(C)C2 (racemic) [Example 1-73, (rac)-1,14-dimethyl-7-[3-(naphthalen-1-yloxy)propyl]-3-[(propan-2-yloxy)methyl]-10,11,12,13,14,15-hexahydro-1H-pyrazolo[3′,4′:8,9][1,6]diazacycloundecino[10,11,1-hi]indole-8-carboxylic Acid] | 7e-06 M | 6.83 µM | 3.68e-06 M | 9.04e-06 M | 0.00713 µM | 1.17e-05 M | 11.9 µM | 1.82e-05 M | 1.53e-05 M |  |
| CN1CCCn2c(C(=O)O)c(CCCOc3cccc4ccccc34)c3cccc(c32)-c2c(CCN3CCOCC3)nn(C)c2C1 (racemic) [Example 124, (rac)-7,9-dimethyl-11-[2-(morpholin-4-yl)ethyl]-1-[3-(naphthalen-1-yloxy)propyl]-4,5,6,7,8,9-hexahydropyrazolo[3′,4′:7,8][1,5]diazecino[9,10,1-hi]indole-2-carboxylic Acid] | 1.71e-05 M | 11.2 µM | 6.64e-06 M | 3.05e-06 M | 0.0187 µM | 1.48e-05 M | 13.4 µM | 1.1e-05 M | 1.61e-05 M |  |
| COCCn1nc2c(c1C1CC1)-c1cccc3c(CCCOc4cccc5ccccc45)c(C(=O)O)n(c13)CCCCOC2 (racemic) [Example 084, (rac)-3-Cycopropyl-2-(2-methoxyethyl)-7-[3-(naphthalen-1-yloxy)propyl]-2,10,11,12,13,15-hexahydropyrazolo[4′,3′:9,10][1,6]oxazacycloundecino[8,7,6-hi]indole-8-carboxylic Acid] | 6.6e-06 M | 7.55 µM | 7.19e-06 M | 3.87e-06 M | 0.00309 µM | 2.67e-05 M | 14.9 µM | 1.77e-05 M | 2.06e-05 M |  |
| CN(C)S(=O)(=O)N1CCN(c2ccc(OCc3nn(C)c4c3-c3cccc5c(CCCOc6cccc7ccccc67)c(C(=O)O)n(c35)CCCCCC4)cc2)CC1 (racemic) [Example 1-39, (rac)-3-({4-[4-(dimethysulfamoyl)piperazin-1-yl]phenoxy}methyl)-1-methyl-7-[3-(naphthalen-1-yloxy)propyl]-10,11,12,13,14,15-hexahydro-1H-pyrazolo[4′,3′:4,5]azacycloundecino[3,2,1-hi]indole-8-carboxylic Acid] | 2.05e-06 M | 3.47 µM | 5.77e-06 M | 2.14e-05 M | 0.00251 µM | > 3.3e-05 M | 2.45 µM | > 3.3e-05 M | 1.82e-06 M |  |
| Cn1nc(CN2CCOCC2)c2c1COCCCCn1c(C(=O)O)c(CCCOc3cccc4ccccc34)c3cccc-2c31 (racemic) [Example 135, (rac)-1-methyl-3-(morpholin-4-ylmethyl)-7-[3-(naphthalen-1-yloxy)propyl]-1,10,11,12,13,15-hexahydropyrazolo[4′,3′:9,10][1,6]oxazacycloundecino[8,7,6-hi]indole-8-carboxylic Acid] | 1.06e-05 M | 12.1 µM | 7.26e-06 M | 1.01e-05 M | 0.0147 µM | > 3.3e-05 M | > 33 µM | > 3.3e-05 M | > 3.3e-05 M |  |
